# From patent US8200312B2, “Apparatus for monitoring a system pressure in space with time and method for assessing drug delivery and resistance to therapy and product” (Yeda Research and Development Co. Ltd., priority 2006, dated 2012)
# “Also recorded” adds a separate entry of the source.
# Experiments:
# [1] = system: H460 human non-small-cell lung cancer tumors; test: Dynamic contrast-enhanced MRI during slow GdDTPA infusion: vascular parameters before and after collagenase; format: in vivo, female CD1-NU immunodeficient mice
# Experimental: (§1) Collagenase catalyzes the degradation of collagen fibers. Changing the collagen microfibrillar network in tumors modulates the extracellular matrix and causes a decrease in IFP (10, 26). H460 tumors were monitored during infusion, in the dynamic period and at steady state 24 h before and ˜5 h after collagenase administration (0.4 mg/kg body w). […] Similarly, maps of transcapillary transfer due to pressure gradients, k^ΔP, and the profiles of this parameter across the tumor indicated a change, particularly in the tumor's central region, from a negative k^ΔP before collagenase to a null or positive k^ΔP after collagenase (FIG. 6).
# (§2) Human NCI-H460 non small cell lung cancer (NSCLC) cells were cultivated and implanted into the flanks of female CD1-NU immunodeficient mice, as previously described (4). During the MRI experiments, mice were anaesthetized by inhalation of 1% isofluorane (Medeva Pharmaceuticals, Inc., Rochester, N.Y., USA) in an O2/N2O (3:7) mixture applied through a nose cone (4). Collagenase (Sigma-Aldrich, St Louis, Mo., USA) treatment was applied by i.v. injection of 0.4 mg/kg body w of this enzyme (1 mg=161 collagen digestion units).
# MRI scanning was performed on a 4.7-T Biospec spectrometer (Bruker Biospin, Rheinstetten, Germany) employing the same spatial resolution of 0.2×0.2×1 mm^3 in all protocols. Delineation of the boundary of the tumors and determination of their volume was achieved by analyzing images recorded with a 2-dimensional fast spin echo sequence using […] as previously described (40).
# (§3) Tissue contrast agent concentration at steady state infusion was determined from measurements of T1 relaxation rates before, and at 90 min after the start of the intravenous infusion of the contrast agent as previously described (4). For the dynamic measurements 3-dimensional T1. weighted gradient echo images were recorded using TErTR=2.1/18.3 ms and flip angle=45°, 47 s temporal resolution. After recording 5 pre-contrast images, slow infusion of GdDTPA (gadopentate-dimeglumine, Schering, Berlin, Germany) was initiated at a rate of 0.011 mmol/min/kg body wt. for a total time of 120 min.
# Analysis of the dynamic data collected during the slow infusion was performed at pixel resolution, on the basis of a model proposed by Jain et al (1, 35, 41-43). This model takes into account the transfer of solutes through the capillary walls and within the interstitial spaces by both diffusion in the direction of the concentration gradients and convection in the direction of the pressure gradients. Relying on few assumptions, which are described herein two differential equations were solved. The first equation applies to regions with low IFP were positive pressure gradients favors net transfer of contrast agent from the capillaries into the tissue (see equation 1) and the second one applies to intra tumoral regions with high IFP where a pressure gradients in the interstitium favors outward convection of the contrast agent and reduces the net delivery to these regions (see equation 2).
# Where Ct is the contrast agent concentration in the entire tissue, Dinf is the contrast agent-infusion rate, k^trans the transcapillary transfer constant, k^ΔP the pressure gradients derived transfer rate which also depends on the shape, morphology, and the hydraulic conductivity of the tissue (1). νe represents the extracellular extravascular (EES) volume fraction, and νp the intravascular volume fraction. The parameters ai, and mi (i=1,2) represent the average plasma pharmacokinetic amplitude and time constant parameters, respectivelyt calculated to be a1=2.94 kg/l, a2=4.85 kg/l, m1=0.73 min^−1, and m2=0.075 min^−1 as previously reported (44).
# A nonlinear “best fit” algorithm (40) was applied to fit the time courses to Equations 1 and 2, calculating the proportion of variability, R^2, per pixel for each fitting. […]
# H460 tumors = test: Steady-state tissue GdDTPA concentration maps (T1 relaxation MRI) before and after collagenase; format: in vivo, female CD1-NU immunodeficient mice
# Experimental: as §1, §2, §3
# Tissue GdDTPA concentration (CGd) at steady state was calculated at pixel resolution from the T1 measurements, as previously described (4).
# [2] = system: human osteosarcoma xenografts; details: collagenase (0.1%), cited from earlier work
# tumors = details: intra-tumoral injection; cited from earlier work
# [3] = as previously reported (44); cited from earlier work
# [4] = system: ectopic human non-small-cell lung cancer and orthotopic MCF7 human breast tumors; details: slow infusion for ~2 hours; cited from earlier work
# fibrosarcoma mouse model = details: cited from earlier work
# [5] = inside H460 tumors (excluding the rim), 5 h after collagenase administration
# [6] = H460 tumors, within hours after administration
# [7] = steady state infusion, ~5 h after collagenase 0.4 mg/kg
compound,measurement,setting,value
collagenase,"all other vascular parameters derived from the analysis, change after collagenase","[1]; H460 tumors, ~5 h after collagenase 0.4 mg/kg",did not change significantly
same,change of pressure dependent transfer constant in the tumors' central/internal regions after collagenase,"[1]; H460 tumors, from negative to positive values",significant increase; also recorded: significant change
same,k^ΔP in the internal parts of the tumors following collagenase treatment,"[1]; increased from (−2.6±3.7)*10^−3, paired t-test, p=0.016",8.6±8.9 *10^−3
same,K^trans*10^−3,[1]; [5],3.7 ± 3.4 *10^−3
same,[…]e (extracellular extravascular volume fraction),[1]; [5],0.24 ± 0.06
same,[…]p (intravascular volume fraction),[1]; [5],0.053 ± 0.027
same,K^□p*10^−3 (pressure dependent transfer constant),"[1]; inside H460 tumors (excluding the rim), 5 h after collagenase administration, 0.4 mg/kg i.v., mean ± SD",8.6 ± 8.9 *10^−3
same,steady state tissue GdDTPA concentration in the internal parts after collagenase treatment,H460 tumors; H460 tumors,significantly increased
same,effect on IFP,H460 tumors; [6],reduces IFP
same,effect on uptake of a contrast agent,H460 tumors; [6],increases the uptake
same,outward convection after collagenase treatment,H460 tumors; [7],vanished
same,transfer of the contrast agent in the interior regions of the tumor after collagenase,H460 tumors; [7],markedly increased
same,effect on IFP,[2]; within hours,reduced IFP
same,increase in the tumor uptake and distribution of a monoclonal antibody,[2],2 fold
same,effect on IFP,tumors,reduce IFP
same,effect on uptake of antibodies,tumors,increase the uptake
"O=C([O-])CN(CCN(CC(=O)[O-])CC(=O)O)CCN(CC(=O)[O-])CC(=O)O.[Gd+3] [GdDTPA, gadolinium-diethylenetriaminepentaacetic acid]","a1, average plasma pharmacokinetic amplitude",[3],2.94 kg/L
same,"a2, average plasma pharmacokinetic amplitude",[3],4.85 kg/L
same,"m1, plasma time constant parameter",[3],0.73 min⁻¹
same,"m2, plasma time constant parameter",[3],0.075 min⁻¹
same,steady-state tissue GdDTPA concentration further inside the tumor,[4],low or null values
same,steady-state tissue GdDTPA concentration in the tumor periphery,[4],~0.5 mmol/L
same,steady-state tissue GdDTPA concentration outside the tumor boundaries,[4],~1 mmol/L
hyaluronidase,effect on IFP,tumors,reduce IFP
same,effect on uptake of antibodies,tumors,increase the uptake
O=C1CCC(N2C(=O)c3ccccc3C2=O)C(=O)N1 (stereo not drawn) [thalidomide],plasma volume fraction and fractional efflux rate from the interstitial space to the plasma,fibrosarcoma mouse model; accompanying the decline in IFP,increased
same,effect on IFP,fibrosarcoma mouse model; fibrosarcoma mouse model,decline
